According to patent US20160000762A1, “IMPROVING COGNITIVE FUNCTION” (THE REGENTS OF THE UNIVERSITY OF CALIFORNIA, priority 2013, published 2016):

Key:
dendritic spines = experiment: Golgi staining, dendritic spine density and morphology in 3× Tg AD mice; assay type: in vivo
Procedure: Golgi staining and morphological analysis of dendritic spines. Dendritic spine density and morphology analyses in the brain were conducted using the FD RAPID GOLGISTAIN KIT™ (FD NeuroTechnologies, Ellicott City, Md., USA). Mouse brains were dissected, immersed in Solutions A and B (2 weeks, room temperature, dark conditions), and then transferred to Solution C (24 h, 4° C.). A VT1000S Vibratome (Leica, Bannockburn, Ill., USA) was then used to slice brains 150 μm thick. Bright-field microscopy acquired dendritic images by Axioplan 2 (Zeiss, Oberkochen, Germany). Scion image software (Scion Corporation, Frederick, Md., USA) allowed measurement of spine head width, spine length, and linear density of cortical layers II/III and CA1 of the hippocampus. Images were coded and analyzed blind to experimental conditions. To measure dendritic spine density, we included spines from 0.2 to 2 μmin length, with at least 25 apical oblique (AO) and basal (BS) dendritic observations averaged from each animal (n=4-5 brains for 2-3 months old/group and 6-10 months old/group, n=3 brains for 13-16 months old/group). To measure spine morphology, we included spines up to 1.4 μm in width and 3.2 μm in length.
BTA-EG4 alters dendritic spine density in the cortex and hippocampus. […] In the present study, we investigated whether BTA-EG4 improves dendritic spine density in a mouse model of AD. For this study, we selected the 3× Tg AD mouse model due to its ability to model the progression of human AD (Oddo et al., 2003). […] To assess its effectiveness throughout disease progression, 2-3 month, 6-10 month, and 13-16 month old 3× Tg AD mice were injected with BTA-EG4 (30 mg/kg, i.p.) or vehicle (10% DMSO) daily for 2 weeks. The 2-week duration of treatment was selected because it increased dendritic spine density and improved memory in wild-type mice (Megill et al., 2013). After the treatment, we conducted Golgi staining to measure dendritic spine density (FIGS. 10A-10J, FIGS. 15A-15H and FIGS. 16A-16B).

Ras [1] = experiment: GST-Raf1-RBD pulldown of active Ras, APP knock-out mice; assay type: in vivo
Procedure: (§1) GST-pull-down assay. To measure levels of active Ras, brain lysate homogenized with Ral buffer (25 mM Tris-HCl, pH 7.4, 250 mM NaCl, 0.5% NP40, 1.25 mM MgCl2, and 5% glycerol) from APP transgenic, APP knockout, or wild-type mice was incubated with GST-Raf-RBD purified protein coupled with GLUTATHIONE SEPHAROSE™ (Amersham) overnight at 4° C. After 24 hours, pellets were washed with Ral buffer and western blotting was conducted with anti-Ras.
Next, we investigated whether BTA-EG4 can alter Ras activity in APP KO mice by injecting control or BTA-EG4 for 2 weeks. […] Further, we examined the effect of BTA-EG4 on downstream Ras signaling in the presence or absence of APP. For this experiment, primary hippocampal neurons were transfected with GFP and APP shRNA or APP, treated with BTA-EG4 or control, and then immunostained against p-ERK or p-CREB.

[2] = Morris water maze, wild-type mice; assay type: in vivo, wild-type (B6) mice
From the text: Morris water maze. To examine the effects of BTA-EG4 on cognitive performance, we injected wild-type (B6) mice with BTA-EG4 daily for one week, and then began behavior testing. We continued daily injections for another week, for a total treatment course of two weeks. The Morris water maze task included training mice to locate a submerged, hidden platform using extramaze visuospatial cues. This system consists of a large, white circular pool with a Plexiglas platform painted white and submerged below the surface of the water, made opaque by the addition of white non-toxic paint. During training, the platform was hidden 14 inches from the side wall in one quadrant of the maze. The animals were gently placed at random into one of the four quadrants, separated by 90°, and facing the wall. The time required (latency) to locate the hidden platform was recorded by a blinded observer and tracked using TOPSCAN, and was limited to 90 sec. Animals failing to find the platform within 90 sec were assisted to the platform. Animals were allowed to remain on the platform for 15 sec on the first trial and 10 sec on subsequent trials. 24 hrs after the final learning trial, a probe trial of 90 sec was given. We recorded the percentage of time spent in the quadrant where the platform was previously located. As a control experiment, we tested motor impairment or visual discriminative ability. The animals were required to locate a clearly visible black platform (placed in a different location), raised above the water surface, at least 12 hrs after the last trial.

Ras [3] = experiment: GST-Raf1-RBD pulldown of active Ras, primary cortical neurons; assay type: cell-based; details: 5 μM
Procedure: as §1
We next investigated the molecular mechanism by which BTA-EG4 may alter dendritic spine formation. Ras, a small GTPase, is involved in dendritic spine formation and synaptic delivery of AMPA receptors (Zhu et al., 2002; Lee et al., 2011). Moreover, abnormal Ras signaling is associated with neurodegenerative disease, causing cognitive impairments and learning deficits (Stornetta and Zhu, 2011). Thus, we initially investigated the effect of BTA-EG4 on Ras signaling by treating primary hippocampal neurons with BTA-EG4 (5 μM) or control for 24 hrs. […] Further, levels of active Ras were elevated following BTA-EG4 treatment (5 μM) in primary cortical neurons (FIG. 7C) and following BTA-EG4 treatment (30 mg/kg) in wild-type mice (FIG. 7D). We also examined whether BTA-EG4 can alter the activity of downstream Ras signaling proteins, including p-ERK and p-CREB.

[4] = 30 mg/kg i.p., probe trial day 5

## BTA-EG4
Dendritic spines; 13-16 months
  dendritic spine length: neither the width nor length of dendritic spines changed
  dendritic spine width: neither the width nor length of dendritic spines changed
Dendritic spines; CA1, 13-16 months, 30 mg/kg daily, 2 weeks
  hippocampal spine density: only a trend toward an increase
Dendritic spines; cortex and hippocampus, 6-10 months, 30 mg/kg
  dendritic spine width: wider
Dendritic spines; cortical layers II/III and hippocampus, 6-10 months, 30 mg/kg
  dendritic spine length: longer
Dendritic spines; cortical neurons, 13-16 months, 30 mg/kg i.p. daily, 2 weeks
  dendritic spine density: improved
Dendritic spines; hippocampus CA1, 2-3 months, 30 mg/kg i.p. daily, 2 weeks
  overall density of dendritic spines: significantly increased
Dendritic spines; hippocampus CA1, 6-10 months, 30 mg/kg i.p. daily, 2 weeks
  overall density of dendritic spines: significantly increased
Dendritic spines; layers II/III of the cortex, 2-3 months, 30 mg/kg i.p. daily, 2 weeks
  overall density of dendritic spines: significantly increased
Dendritic spines; layers II/III of the cortex, 6-10 months, 30 mg/kg i.p. daily, 2 weeks
  overall density of dendritic spines: significantly increased
Ras [1]; 30 mg/kg i.p., 2 weeks, CTRL (C)=100±1.22%, n=5
  amount of active Ras: 03.2±1.26%
Ras [1]; injected for 2 weeks
  Ras activity: did not have altered
[2]; 30 mg/kg i.p. daily
  escape latency during training: significantly reduced
[2]; [4]
  rate of platform crossing: significantly higher rate
  time spent in the target quadrant: spent more time
[2]; 30 mg/kg i.p., training trials
  path length to the escape platform: no difference
[2]; 30 mg/kg i.p., CTRL=117±3.1 mm/s, p<0.01
  swim speed: 130±3.6 mm/s
Ras [3]
  levels of active Ras: elevated
